Experimental findings from US20240199605A1, “SMALL MOLECULAR INHIBITORS OF NF-kB INDUCING KINASE” (Janssen Pharmaceutica NV, priority 2019, published 2024) are described below.

The target of experiment [1] is recombinant human NF-kappaB-inducing kinase (NIK/MAP3K14) (Homo sapiens (Human), UniProt Q99558). In words: Inhibition of auto-phosphorylation of recombinant human NIK/MAP3K14 (AlphaScreen). To be noted: NIK auto-phosphorylation, 5 μM ATP, 1 nM NIK, 2 h at 25° C.; average of values. It counts as biochemical. The method, then:
Inhibition of auto-phosphorylation of recombinant human NF-kappaB-inducing kinase (NIK/MAP3K14) activity (AlphaScreen®)
NIK/MAP3K14 auto-phosphorylation activity was measured using the AlphaScreen® (αscreen) format (Perkin Elmer). All compounds tested were dissolved in dimethyl sulfoxide (DMSO) and further dilutions were made in assay buffer. The final DMSO concentration was 0.7% (v/v) in assays. The assay buffer was 50 mM Tris pH 7.5 containing 1 mM EGTA (ethylene glycol tetraacetic acid), 1 mM DTT (dithiothreitol), 0.1 mM Na3VO4, 5 mM MgCl2, and 0.01% Tween® 20. The assays were carried out in 384 well Proxiplates (Perkin Elmer). The incubations consisted of the compound, 5 μM Adenosine-5′-triphosphate (ATP), and 1 nM NIK/MAP3K14. Incubations were initiated by the addition of GST-tagged NIK/MAP3K14 enzyme, carried out for 2 h at 25° C. and terminated by addition of stop buffer containing anti-phospho-IKK Ser176/180 antibody. Protein A Acceptor and Glutathione-Donor beads were added before reading using an EnVision® Multilabel Plate Reader (Perkin Elmer). […] IC50's were determined by fitting a sigmoidal curve to % inhibition of control versus Log10 compound concentration.

Experiment [2] concerns p-IKKα levels in L363 (NIK translocated multiple myeloma) cells. Kind of experiment: Effect of compounds on p-IKKα levels in L363 cells (AlphaLISA SureFire Ultra). It counts as cell-based, human. The conditions noted are these: BAFF stimulated, MG132, 6 h, average of values, read-out: Assay 2 IC50. The method, then:
Effect of Compounds on p-IKKα Levels in L363 (NIK Translocated Multiple Myeloma) Cells
All compounds tested were dissolved and serially diluted in DMSO, 1:3 dilution for 11 points in an Echo compatible plate. 100% DMSO was added to columns 12 and 24 of the plate to serve as high and low signal controls. This compound plate was used to spot 20 nL of compound or DMSO into a Greiner 384 well TC plate (781080). The final DMSO concentration was 0.3% (v/v) in cell assays. Human L363 cells (ATCC) were cultured in RPM11640 medium supplemented with GlutaMax, non-essential amino acids, sodium pyruvate and 10% fetal bovine serum. Cells were routinely maintained at densities of […] at 37° C. in a humidified 5% CO2 atmosphere incubator. Cells were passaged twice a week splitting back to obtain the low density. The day before the assay, cells were washed twice in HBSS (Hank's Balanced Salt Solution), resuspended in Dulbecco's Modified Eagle Medium (DMEM)+0.5% IgG and protease free BSA (Jackson Immuno Research Laboratories), +/−250 ng/ml recombinant human B-cell activating factor (BAFF/BLyS/TNFSF13B) and incubated overnight at 37° C. in a humidified 5% CO2 atmosphere (bulk stimulation with or without BAFF). The next day, the cell concentration was adjusted to 1×10^7 cells/ml in DMEM+/−250 ng/ml BAFF+/−10 μM MG132 and plated at 10 μl/well into compound or DMSO spotted 384 well TC plates. Seeded cells were incubated at 37° C. in a humidified 5% CO2 atmosphere for 6 h. After 6 h, the plates were removed from the incubator and cell lysis was achieved by the addition of 2.5 μl 5× lysis buffer containing protease and phosphatase inhibitors, followed by shaking on a plate shaker at room temperature for 15 min. At the end of this incubation, lysed cells were sequentially treated and incubated with acceptor and donor bead mixes according to the manufacturer's protocol for a 1 plate/2-incubation suspension cell assay (AlphaLISA SureFire Ultra p-IKKa (Ser 176/180) Assay Kit (Perkin Elmer). Plates were read using an EnVision® Multilabel Plate Reader (Perkin Elmer). Within an experiment, a concentration response curve for each compound was run in duplicate. The signal obtained in the test wells was normalized using high signal (BAFF stimulated cells, DMSO, MG132) and low signal (unstimulated cells, DMSO) controls. To determine the IC50, a sigmoidal curve was fitted to the plot of % inhibition versus Log10 compound concentration.

Read-outs that look alike come from different tables or passages of the source.

recombinant human NF-kappaB-inducing kinase (NIK/MAP3K14), sequence (Q99558 whole entry): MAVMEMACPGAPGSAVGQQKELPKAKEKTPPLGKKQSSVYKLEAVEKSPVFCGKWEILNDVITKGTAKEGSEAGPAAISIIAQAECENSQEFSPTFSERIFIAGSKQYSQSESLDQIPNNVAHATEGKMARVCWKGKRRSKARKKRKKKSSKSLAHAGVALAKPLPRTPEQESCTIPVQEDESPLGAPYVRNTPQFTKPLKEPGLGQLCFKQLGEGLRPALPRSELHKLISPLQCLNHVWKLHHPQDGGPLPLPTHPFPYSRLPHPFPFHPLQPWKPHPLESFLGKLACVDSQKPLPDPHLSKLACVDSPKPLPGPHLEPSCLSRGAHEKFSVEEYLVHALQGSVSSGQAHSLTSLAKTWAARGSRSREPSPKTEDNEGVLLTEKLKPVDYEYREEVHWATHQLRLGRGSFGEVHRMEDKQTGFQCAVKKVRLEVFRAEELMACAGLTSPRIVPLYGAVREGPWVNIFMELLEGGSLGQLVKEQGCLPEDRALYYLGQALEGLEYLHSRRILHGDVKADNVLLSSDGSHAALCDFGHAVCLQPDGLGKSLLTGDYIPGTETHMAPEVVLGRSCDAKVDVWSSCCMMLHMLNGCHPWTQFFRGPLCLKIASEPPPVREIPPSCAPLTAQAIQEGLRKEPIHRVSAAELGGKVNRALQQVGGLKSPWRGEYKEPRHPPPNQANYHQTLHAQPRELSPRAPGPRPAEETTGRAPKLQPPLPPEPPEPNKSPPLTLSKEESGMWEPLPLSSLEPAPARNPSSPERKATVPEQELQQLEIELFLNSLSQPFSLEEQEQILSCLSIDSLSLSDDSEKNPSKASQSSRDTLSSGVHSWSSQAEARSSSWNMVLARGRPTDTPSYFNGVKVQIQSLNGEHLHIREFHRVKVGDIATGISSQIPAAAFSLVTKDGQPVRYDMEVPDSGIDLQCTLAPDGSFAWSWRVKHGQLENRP

For the compound `C=CCN1CCC(O)(C#Cc2cccc(-c3ccc4nc(C)nc(N)c4n3)c2)C1=O` (racemic) [Example 195, racemic-1-Allyl-3-((3-(4-amino-2-methylpyrido[3,2-d]pyrimidin-6-yl)phenyl)ethynyl)-3-hydroxypyrrolidin-2-one], the IC50 in experiment [1] is 21 nM; in experiment [2] (Homo sapiens, L-363, 6 h), 1130 nM.

For `[2H]c1nc(N)c2nc(-c3cccc(C#CC4(O)CCN(CC=C)C4=O)c3)ccc2n1` (racemic) [Example 196, racemic-1-Allyl-3-((3-(4-aminopyrido[3,2-d]pyrimidin-6-yl-2-d)phenyl)ethynyl)-3-hydroxypyrrolidin-2-one], the IC50 in experiment [1] was 4.4 nM; in experiment [2] (Homo sapiens, L-363, 6 h) it was 250 nM.

Take `Cc1nc(N)c2nc(-c3cccc(C#CC(C)(O)c4c[nH]cn4)c3)ccc2n1` (racemic) [Example 202, racemic-4-(3-(4-Amino-2-methylpyrido[3,2-d]pyrimidin-6-yl)phenyl)-2-(1H-imidazol-4-yl)but-3-yn-2-ol]: the IC50 in experiment [1] turned out to be 1 nM; in experiment [2] (Homo sapiens, L-363, 6 h), 280 nM.

`[2H]C([2H])([2H])N1CC[C@@](O)(C#Cc2ccc(C)c(-c3ccc4ccnc(N)c4c3)c2)C1=O` (single isomer, unassigned) [Example 71]: the 50% inhibitory concentration (IC50) in experiment [1] is 4220 nM; in experiment [2] it was over 5000 nM.

For `CN1CCC(O)(C#Cc2cccc(-c3ccc4ccnc(N)c4n3)c2)C1=O` (stereo in doubt) [Example 19, (R)-3-[2-[3-(8-Amino-1,7-naphthyridin-2-yl)phenyl]ethynyl]-3-hydroxy-1-methyl-pyrrolidin-2-one], the IC50 was at most 0.5 nM in experiment [1] and 9.9 nM in experiment [2] (Homo sapiens, L-363, 6 h).

Take `O=c1[nH]ccc2cnc(-c3cccc(C#CC4(O)CCc5cccnc54)c3)nc12` (stereo in doubt) [Example 47, (R)-2-[3-[2-(7-Hydroxy-5,6-dihydrocyclopenta[b]pyridin-7-yl)ethynyl]phenyl]-7H-pyrido[3,4-d]pyrimidin-8-one]: the IC50 in experiment [1] is 42 nM; in experiment [2] (Homo sapiens, L-363, 6 h), 1600 nM.

In the case of `[2H]C([2H])([2H])N1CCC(O)(C#Cc2cccc(-c3ncc4ccnc(N)c4n3)c2)C1=O` (stereo in doubt) [Example 66, (R)-3-[2-[3-(8-Aminopyrido[3,4-d]pyrimidin-2-yl)phenyl]ethynyl]-3-hydroxy-1-(trideuteriomethyl)pyrrolidin-2-one], the half-maximal inhibitory concentration (IC50) is at most 0.5 nM in experiment [1] and 4.5 nM in experiment [2] (Homo sapiens, L-363, 6 h).

For `[2H]C([2H])([2H])N1CCC(O)(C#Cc2cccc(-c3ncc4ccnc(N)c4n3)c2)C1=O` (stereo in doubt) [Example 67, (S)-3-[2-[3-(8-Aminopyrido[3,4-d]pyrimidin-2-yl)phenyl]ethynyl]-3-hydroxy-1-(trideuteriomethyl)pyrrolidin-2-one], the half-inhibitory concentration (IC50) in experiment [1] turned out to be 11 nM; in experiment [2] (Homo sapiens, L-363, 6 h), 350 nM.

As to `Nc1nccc2cnc(-c3cccc(C#CC4(O)CCN(CC(F)(F)F)C4=O)c3)nc12` (stereo in doubt) [Example 72, (R)-3-[2-[3-(8-Aminopyrido[3,4-d]pyrimidin-2-yl)phenyl]ethynyl]-3-hydroxy-1-(2,2,2-trifluoroethyl)pyrrolidin-2-one], the IC50 in experiment [1] came to 8 nM; in experiment [2] (Homo sapiens, L-363, 6 h), 910 nM.

For `Nc1nccc2cnc(-c3cccc(C#CC4(O)CCN(CC(F)(F)F)C4=O)c3)nc12` (stereo in doubt) [Example 73, (S)-3-[2-[3-(8-Aminopyrido[3,4-d]pyrimidin-2-yl)phenyl]ethynyl]-3-hydroxy-1-(2,2,2-trifluoroethyl)pyrrolidin-2-one], the IC50 in experiment [1] was 1730 nM; in experiment [2] (Homo sapiens, L-363, 6 h) it was over 5000 nM.

With `[2H]C([2H])([2H])N1CCC(O)(C#Cc2cccc(-c3ncc4c(C)cnc(N)c4n3)c2)C1=O` (stereo in doubt) [Example 87, (R)-3-[2-[3-(8-Amino-5-methyl-pyrido[3,4-d]pyrimidin-2-yl)phenyl]ethynyl]-3-hydroxy-1-(trideuteriomethyl)pyrrolidin-2-one], the half-inhibitory concentration (IC50) is at most 0.5 nM in experiment [1] and 6 nM in experiment [2] (Homo sapiens, L-363, 6 h).

Regarding `Nc1nccc2ccc(-c3cccc(C#CC4(O)CCn5ccnc54)c3)nc12` (stereo in doubt) [Example 91, (R)-7-[2-[3-(8-Amino-1,7-naphthyridin-2-yl)phenyl]ethynyl]-5,6-dihydropyrrolo[1,2-a]imidazol-7-ol], the half-inhibitory concentration (IC50) in experiment [1] was at most 0.5 nM; in experiment [2] (Homo sapiens, L-363, 6 h), 17 nM.

Take `CN1CCC(O)(C#Cc2cccc(-c3ncc4ccnc(N5CCC5)c4n3)c2)C1=O` (stereo in doubt) [Example 248, (S)-3-((3-(8-(Azetidin-1-yl)pyrido[3,4-d]pyrimidin-2-yl)phenyl)ethynyl)-3-hydroxy-1-methylpyrrolidin-2-one]: the IC50 was 3340 nM in experiment [1] and over 5000 nM in experiment [2].

`Cc1nc(N)c2nc(-c3cccc(C#C[C@@]4(O)C(=O)N(C)C[C@@H]4C)c3)ccc2n1` (stereo in doubt) [Example 291, (3R,4S*)-3-((3-(4-Amino-2-methylpyrido[3,2-d]pyrimidin-6-yl)phenyl)ethynyl)-3-hydroxy-1,4-dimethylpyrrolidin-2-one]: the IC50 is 54 nM in experiment [1] and 1390 nM in experiment [2] (Homo sapiens, L-363, 6 h).

`Cc1nc(N)c2nc(-c3cccc(C#C[C@@]4(O)C(=O)N(C)C[C@H]4C)c3)ccc2n1` (stereo in doubt) [Example 292, (3R,4R*)-3-((3-(4-Amino-2-methylpyrido[3,2-d]pyrimidin-6-yl)phenyl)ethynyl)-3-hydroxy-1,4-dimethylpyrrolidin-2-one]: the IC50 in experiment [1] turned out to be 22 nM; in experiment [2] (Homo sapiens, L-363, 6 h), 660 nM.

Consider `Cc1nc(N)c2nc(-c3cccc(C#C[C@]4(O)C(=O)N(C)C[C@@H]4C)c3)ccc2n1` (stereo in doubt) [Example 293, (3S,4S*)-3-((3-(4-Amino-2-methylpyrido[3,2-d]pyrimidin-6-yl)phenyl)ethynyl)-3-hydroxy-1,4-dimethylpyrrolidin-2-one], for which the IC50 is over 5000 nM in experiment [1] and over 5000 nM in experiment [2] (Homo sapiens, L-363, 6 h).

In the case of `Cc1nc(N)c2nc(-c3cccc(C#C[C@]4(O)C(=O)N(C)C[C@H]4C)c3)ccc2n1` (stereo in doubt) [Example 294, (3S,4R*)-3-((3-(4-Amino-2-methylpyrido[3,2-d]pyrimidin-6-yl)phenyl)ethynyl)-3-hydroxy-1,4-dimethylpyrrolidin-2-one], the IC50 came to 390 nM in experiment [1] and 2460 nM in experiment [2] (Homo sapiens, L-363, 6 h).

Turning to `CN1CC[C@@](O)(C#Cc2cccc(-c3ncc4ccnc(N)c4n3)c2)C1=O` [Example 1, (R)-3-[2-[3-(8-Aminopyrido[3,4-d]pyrimidin-2-yl)phenyl]ethynyl]-3-hydroxy-1-methyl-pyrrolidin-2-one], the IC50 is at most 0.5 nM in experiment [1] and 3.7 nM in experiment [2] (Homo sapiens, L-363, 6 h).

For `CN1CC[C@](O)(C#Cc2cccc(-c3ncc4ccnc(N)c4n3)c2)C1=O` [Example 2, (S)-3-[2-[3-(8-Aminopyrido[3,4-d]pyrimidin-2-yl)phenyl]ethynyl]-3-hydroxy-1-methyl-pyrrolidin-2-one], the half-maximal inhibitory concentration (IC50) is 160 nM in experiment [1] and over 5000 nM in experiment [2] (Homo sapiens, L-363, 6 h).

For `Cc1ccc(C#C[C@]2(O)CCN(C)C2=O)cc1-c1ccc2ncnc(N)c2n1` [Example 3, (R)-3-[2-[3-(4-Aminopyrido[3,2-d]pyrimidin-6-yl)-4-methyl-phenyl]ethynyl]-3-hydroxy-1-methyl-pyrrolidin-2-one], the half-maximal inhibitory concentration (IC50) in experiment [1] was determined as 0.7 nM; in experiment [2] (Homo sapiens, L-363, 6 h) it was 28 nM.
